Results on three compounds are retold here after BindingDB's records for doi:10.1016/j.ejmech.2018.09.013 (Wuhan Institute of Technology, 2018).

Test [1] in a line: Inhibition of wild-type HIV1 3B reverse transcriptase infected in human MT4 cells assessed as protection against virus-induced cytopathic effect measured 5 days post infection by MTT assay. For orientation: Damage to the host cells serves as the signal in cytopathic effect assays.
A short description of test [2]: Inhibition of HIV1 reverse transcriptase K103N mutant infected in human MT4 cells assessed as protection against virus-induced cytopathic effect measured 5 days post infection by MTT assay.
Test [3] is described as follows: Inhibition of HIV1 reverse transcriptase E138K mutant infected in human MT4 cells assessed as protection against virus-induced cytopathic effect measured 5 days post infection by MTT assay.
Test [4] can be described thus: Inhibition of HIV1 reverse transcriptase K103N/Y188C double mutant infected in human MT4 cells assessed as protection against virus-induced cytopathic effect measured 5 days post infection by MTT assay.
Test [5] in a line: Inhibition of HIV1 reverse transcriptase K103N/Y181C double mutant infected in human MT2 cells assessed as protection against virus-induced cytopathic effect by MTT assay.
Test [6] is described as follows: Inhibition of HIV1 reverse transcriptase Y181C mutant infected in human MT2 cells assessed as protection against virus-induced cytopathic effect by MTT assay.
The nature of test [7]: Inhibition of HIV1 3B reverse transcriptase infected in human MT2 cells assessed as protection against virus-induced cytopathic effect by MTT assay.
A short description of test [8]: Inhibition of wild-type HIV1 3B reverse transcriptase infected in human MT4 cells assessed as protection against virus-induced cytopathic effect.
Test [9] can be described thus: Inhibition of HIV1 RES056 reverse transcriptase K103N/Y181C double mutant infected in human MT4 cells assessed as protection against virus-induced cytopathic effect.

The EC50 is the concentration that produces a half-maximal response. Regarding `Cc1cc(C#Cc2cccnc2)cc(C)c1Oc1ccnc(Nc2ccc(C#N)cc2)n1`, the EC50 was 3 nM in test [1], 10 nM in [2], 22 nM in test [3] and 935 nM in test [4].
Regarding `N#C/C=C/c1cc(F)c(Nc2nc(NCCCN3CCOCC3)nc(Nc3ccc(C#N)cc3)n2)c(F)c1`, the 50% effective concentration (EC50) in [5] is 16 nM; in [6], 75 nM; in test [7] it was 5.7 nM.
In the case of `Cc1cc(C(C#N)c2ccccc2F)nc(Nc2ccc(C#N)cc2)n1` (centres undefined), the results for the concentration giving a half-maximal response (EC50) in test [8] and in [9] were 1.8 nM and over 217 nM, respectively.
